Results published in patent US20080234188A1, “Antimicrobial Peptides” (The Hospital for Sick Children, priority 2001, published 2008).
Values after ≈ are worked out from the molar mass of the structure shown. Where a SMILES comes first, the peptide text is derived from it. [ ]: non-standard residue; d: D form.

Key:
Rabbit RBC = type: cell-based
Experimental: (§1) Erythrocytes from heparinized rabbit or human blood were washed three times with phosphate-buffered saline (PBS; 5 mM phosphate buffer, 0.14 M saline, pH 7.3), and centrifuged at 1000×g for 15 min at 4° C. The erythrocytes were diluted with PBS to 4% (v/v). Dilutions of the peptides in PBS were plated in 100 μl volumes in microtitre plates (Costar 3790, polypropylene) together with 100μl of the erythrocyte suspension. PBS was used as control and 100% lysis was determined in 0.1% Triton X-100. The plates were incubated at 37° C. for 1 h and then centrifuged at 1000×g for 5 min. 100 μl aliquots of the supernatant were transferred to microtitre plates (Nunc, polystyrene), and the release of hemoglobin was monitored by measurement of the absorbance at 540 nm in a microplate reader. The results are shown in Table 6, for peptide concentrations of […]. With only one or two exceptions, little or no hemolysis was seen.

Human RBC = type: cell-based
Experimental: as §1

E. coli UB1005 = type: cell-based, Escherichia coli; conditions: UB1005
Summary of the method: (§2)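 MIC by microdilution: MHB, 2−7×10^5 CFU/ml, peptide 10× stocks in 0.01% AcOH/0.2% BSA (doubling series), 37° C 18-24 h, recheck 40-48 h, visual + OD600 read.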

E. coli ATCC25922 = type: cell-based
Excerpt: (§3) The bacterial strains used were E. coli C498, E. coli C500, Escherichia coli UB1005 and its antibiotic supersusceptible derivative DC2 (22); a clinical isolate of Staphylococcus epidermidis (C621); coryneform bacterial strain Corynebacterium xerosis (C875); and E. coli ATCC 25922, Staphylococcus aureus ATCC 25923, Enterococcus faecalis ATCC 29212, Bacillus subtilis ATCC 6633 and Pseudomonas aeruginosa ATCC 27853, all from American Type Culture Collection.
(§4) Peptide antibacterial activity was assessed by the method of R. Hancock et al. (Wu & Hancock (1999), J. Biol. Chem., v. 274, pp. 29-35). Test strains of bacteria from Mueller Hinton agar (MHA) plates were inoculated into 5 ml Mueller Hinton Broth (MHB) in tubes and grown overnight at 37° C. on a shaker (180 rpm). Serial dilutions of test peptides (at 10 times the required test concentrations) were made in 0.01% acetic acid, 0.2% BSA, in polypropylene or coated glass tubes as follows: the test peptide was (a) dissolved in distilled water at 20 times the required maximum concentration (enough final volume for all tests to be performed on a given day); (b) diluted into an equal volume of 0.02% acetic acid, 0.4% BSA to give 10 times the required maximum concentration; (c) serial doubling dilutions were performed in 0.01% acetic acid, 0.2% BSA to provide serial dilutions of peptides at 10 times the required test concentrations, e.g., 640, 320, 160, . . . 2.5 μg/ml. (No deleterious effects of long-term storage of peptides in these media have been detected). Overnight bacterial cultures were diluted in MHB to give 2−7×10^5 colony forming units/ml. Bacterial suspension (100 μl) was dispensed in each well; controls without bacteria were maintained in parallel. To each well was added 11 μl of 10× test peptide and plates were incubated at 37° C. for 18-24 hours, and checked again at 40-48 hours. Plates were read visually and at 600 nm in a microplate reader (Molecular Devices).
(§5) A further number of the peptides of the invention were tested for antimicrobial activity against a range of Gram-positive and Gram-negative bacteria by the assay described immediately before Example 1.

[1] = tested on: Staphylococcus epidermidis (C621); type: cell-based; conditions: C621
Summary of the method: (§6)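 Broth microdilution in Mueller Hinton Broth, inoculum 2−7×10^5 CFU/ml. Peptides serially doubled in 0.01% acetic acid, 0.2% BSA and added at 10× final concentration. Incubation 37° C for 18-24 h, rechecked at 40-48 h; growth read visually and at 600 nm.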

E. faecalis ATCC29212 = type: cell-based, Enterococcus faecalis
Excerpt: as §3, §4, §5

B. subtilis ATCC6633 = type: cell-based, Bacillus subtilis
Excerpt: as §3, §4, §5

S. aureus ATCC25923 = type: cell-based, Staphylococcus aureus
Excerpt: as §3, §4, §5

P. aeruginosa ATCC27853 = type: cell-based, Pseudomonas aeruginosa
Excerpt: as §3, §4, §5

[2] = tested on: Corynebacterium xerosis (C875); type: cell-based
Summary of the method: as §6

E. coli DC2 = assay: Assay of antibacterial activity (MIC), E. coli DC2; type: cell-based, Escherichia coli; conditions: Table 5A
Summary of the method: as §2

SMILES	Rabbit RBC (% lysis) 50 μM (Rabbit RBC)	Rabbit RBC (% lysis) 200 μM (Rabbit RBC)	Human RBC (% lysis) 50 μM (Human RBC)	Human RBC (% lysis) 200 μM (Human RBC)	MIC E. coli UB1005 (E. coli UB1005)	MIC E. coli ATCC25922 (E. coli ATCC25922)	MIC S. epidermidis C621 [1]	MIC E. faecalis ATCC29212 (E. faecalis ATCC29212)	MIC B. subtilis ATCC6633 (B. subtilis ATCC6633)	MIC S. aureus ATCC25923 (S. aureus ATCC25923)	MIC P. aeruginosa ATCC27853 (P. aeruginosa ATCC27853)	MIC C. xerosis C875 [2]	MIC E. coli DC2 (E. coli DC2)
C[C@@H](NC(=O)[C@@H](C)NC(=O)[C@@H](Cc1ccccc1)NC(=O)[C@@H](C)NC(=O)[C@@H](C)NC(=O)[C@@H](Cc1c[nH]c2ccccc12)NC(=O)[C@@H](C)NC(=O)[C@@H](C)NC(=O)[C@@H](Cc1ccccc1)NC(=O)[C@@H](C)NC(=O)[C@@H](C)NC(=O)[C@@H](CCCCN)NC(=O)[C@@H](CCCCN)NC(=O)[C@@H](CCCCN)NC(=O)[C@@H](CCCCN)NC(=O)[C@@H](CCCCN)NC(=O)[C@H](N)CCCCN)C(N)=O [A11-D F17-6K, kkkkkkaafaawaafaa-NH2] (H-[dK][dK][dK][dK][dK][dK][dA][dA][dF][dA][dA][dW][dA][dA][dF][dA][dA]-NH2)	0 % lysis	2 % lysis	0 % lysis	0 % lysis	0.5 µM (≈ 0.918 µg/mL)	2 µM (≈ 3.67 µg/mL)	4 µM (≈ 7.34 µg/mL)	>32 µM	4 µM (≈ 7.34 µg/mL)	32 µM (≈ 58.7 µg/mL)	8 µM (≈ 14.7 µg/mL)	–	–
C[C@H](NC(=O)[C@H](C)NC(=O)[C@H](C)NC(=O)[C@H](Cc1c[nH]c2ccccc12)NC(=O)[C@H](Cc1ccccc1)NC(=O)[C@H](C)NC(=O)[C@H](C)NC(=O)[C@H](C)NC(=O)[C@H](C)NC(=O)[C@H](CCCCN)NC(=O)[C@H](CCCCN)NC(=O)[C@H](CCCCN)NC(=O)[C@H](CCCCN)NC(=O)[C@H](CCCCN)NC(=O)[C@@H](N)CCCCN)C(=O)N[C@@H](C)C(=O)N[C@@H](Cc1ccccc1)C(N)=O [KAFW, KKKKKKAAAAFWAAAAF-NH2] (H-KKKKKKAAAAFWAAAAF-NH2; N-terminus assumed)	0 % lysis	1 % lysis	0 % lysis	0 % lysis	2 µM (≈ 3.67 µg/mL)	16 µM (≈ 29.4 µg/mL)	8 µM (≈ 14.7 µg/mL)	–	–	–	16 µM (≈ 29.4 µg/mL)	0.5 µM (≈ 0.918 µg/mL)	0.5 µM (≈ 0.918 µg/mL)
C[C@H](NC(=O)[C@H](C)NC(=O)[C@H](Cc1ccccc1)NC(=O)[C@H](C)NC(=O)[C@H](C)NC(=O)[C@H](Cc1ccccc1)NC(=O)[C@H](C)NC(=O)[C@H](C)NC(=O)[C@H](Cc1ccccc1)NC(=O)[C@H](C)NC(=O)[C@H](C)NC(=O)[C@H](CCCCN)NC(=O)[C@H](CCCCN)NC(=O)[C@H](CCCCN)NC(=O)[C@H](CCCCN)NC(=O)[C@H](CCCCN)NC(=O)[C@@H](N)CCCCN)C(N)=O [Peptide 3F17-6K, KKKKKKAAFAAFAAFAA-NH2] (H-KKKKKKAAFAAFAAFAA-NH2; N-terminus assumed)	0 % lysis	2 % lysis	0 % lysis	0 % lysis	2 µM (≈ 3.59 µg/mL)	16 µM (≈ 28.7 µg/mL)	8 µM (≈ 14.4 µg/mL)	>32 µM	16 µM (≈ 28.7 µg/mL)	>32 µM	16 µM (≈ 28.7 µg/mL)	–	–
C[C@H](NC(=O)[C@H](C)NC(=O)[C@H](Cc1ccccc1)NC(=O)[C@H](C)NC(=O)[C@H](C)NC(=O)[C@H](Cc1c[nH]c2ccccc12)NC(=O)[C@H](C)NC(=O)[C@H](C)NC(=O)[C@H](Cc1ccccc1)NC(=O)[C@H](C)NC(=O)[C@H](C)NC(=O)[C@H](CCCNC(=N)N)NC(=O)[C@H](CCCNC(=N)N)NC(=O)[C@H](CCCNC(=N)N)NC(=O)[C@H](CCCNC(=N)N)NC(=O)[C@H](CCCNC(=N)N)NC(=O)[C@@H](N)CCCNC(=N)N)C(N)=O [Peptide F17-6R, RRRRRRAAFAAWAAFAA-NH2] (H-RRRRRRAAFAAWAAFAA-NH2; N-terminus assumed)	1 % lysis	3 % lysis	14 % lysis	26 % lysis	1 µM (≈ 2 µg/mL)	4 µM (≈ 8.01 µg/mL)	4 µM (≈ 8.01 µg/mL)	–	–	–	8 µM (≈ 16 µg/mL)	0.5 µM (≈ 1 µg/mL)	0.5 µM (≈ 1 µg/mL)
C[C@H](NC(=O)[C@H](C)NC(=O)[C@H](C)NC(=O)[C@H](Cc1ccccc1)NC(=O)[C@H](C)NC(=O)[C@H](C)NC(=O)[C@H](Cc1c[nH]c2ccccc12)NC(=O)[C@H](C)NC(=O)[C@H](C)NC(=O)[C@H](Cc1ccccc1)NC(=O)[C@H](C)NC(=O)[C@H](C)NC(=O)[C@H](C)NC(=O)[C@H](C)NC(=O)[C@H](C)NC(=O)[C@H](Cc1ccccc1)NC(=O)[C@H](C)NC(=O)[C@H](C)NC(=O)[C@H](C)NC(=O)[C@H](CCCCN)NC(=O)[C@H](CCCCN)NC(=O)[C@H](CCCCN)NC(=O)[C@H](CCCCN)NC(=O)[C@H](CCCCN)NC(=O)[C@@H](N)CCCCN)C(N)=O [Peptide F25-6K] (H-KKKKKKAAAFAAAAAFAAWAAFAAA-NH2; N-terminus assumed)	–	–	11 % lysis	17 % lysis	16 µM (≈ 39.7 µg/mL)	16 µM (≈ 39.7 µg/mL)	4 µM (≈ 9.92 µg/mL)	–	–	–	32 µM (≈ 79.4 µg/mL)	1 µM (≈ 2.48 µg/mL)	8 µM (≈ 19.8 µg/mL)
C[C@H](NC(=O)[C@H](C)NC(=O)[C@H](Cc1c[nH]c2ccccc12)NC(=O)[C@H](C)NC(=O)[C@H](C)NC(=O)[C@H](Cc1c[nH]c2ccccc12)NC(=O)[C@H](C)NC(=O)[C@H](C)NC(=O)[C@H](Cc1c[nH]c2ccccc12)NC(=O)[C@H](C)NC(=O)[C@H](C)NC(=O)[C@H](CCCCN)NC(=O)[C@H](CCCCN)NC(=O)[C@H](CCCCN)NC(=O)[C@H](CCCCN)NC(=O)[C@H](CCCCN)NC(=O)[C@@H](N)CCCCN)C(N)=O [Peptide W17-6K, KKKKKKAAWAAWAAWAA-NH2] (H-KKKKKKAAWAAWAAWAA-NH2; N-terminus assumed)	0 % lysis	2 % lysis	0 % lysis	0 % lysis	1 µM (≈ 1.91 µg/mL)	8 µM (≈ 15.3 µg/mL)	8 µM (≈ 15.3 µg/mL)	>32 µM	4 µM (≈ 7.65 µg/mL)	32 µM (≈ 61.2 µg/mL)	8 µM (≈ 15.3 µg/mL)	–	–
